Test results as given in article PMC11448502, “Cryo-EM structures of the human P2X1 receptor reveal subtype-specific architecture and antagonism by supramolecular ligand-binding” (Nature Communications, 2024).
Changes are numbered by the printed parent chain. Values joined by “and” are separate entries in the source; they are usually repeats but may differ in a detail not shown here. Equal values may be shown once. “Also recorded” adds a separate entry of the source. Each block holds one compound with its values, some of them ahead of it.

Columns and labels:
[1] = tested on: P2X1; set-up: method as in doi.org/10.1074/jbc.M114.592246; details: reviewer comment; ref doi.org/10.1074/jbc.M114.592246; cited from earlier work
[2] = target: T1, hP2X1 R292A (Homo sapiens, UniProt P51575, R292A); experiment: ATP dose response (EC50), TEVC in oocytes; type: cell-based
T1 construct: hP2X1 mRNA that was made from linearized full-length wild-type or mutant pcDNA 3.1x; expressed in transfected cells; host or cells: Xenopus laevis oocytes (mRNA injection)
T1 sequence (P51575 1-399 R292A): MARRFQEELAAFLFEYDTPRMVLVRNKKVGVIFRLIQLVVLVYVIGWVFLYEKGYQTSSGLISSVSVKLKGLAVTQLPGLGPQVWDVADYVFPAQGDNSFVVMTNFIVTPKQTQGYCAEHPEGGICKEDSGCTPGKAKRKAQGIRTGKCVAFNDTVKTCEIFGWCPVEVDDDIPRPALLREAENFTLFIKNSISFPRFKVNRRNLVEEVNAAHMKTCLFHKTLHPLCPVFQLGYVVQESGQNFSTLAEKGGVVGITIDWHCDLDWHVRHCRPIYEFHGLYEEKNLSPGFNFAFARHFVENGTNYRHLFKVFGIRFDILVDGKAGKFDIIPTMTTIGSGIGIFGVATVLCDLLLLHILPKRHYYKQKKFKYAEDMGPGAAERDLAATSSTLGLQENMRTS
Procedure: (§1) Oocytes were purchased defolliculated from Ecocyte Bioscience in Barth’s Solution (88 mM NaCl, 1 mM KCl, 0.82 mM MgSO4, 0.33 mM Ca(NO3)2, 0.41 mM CaCl2, 2.4 mM NaHCO3, 5 mM Tris-HCl) supplemented with penicillin (100 U/mL) and streptomycin (100 µg/mL). Xenopus laevis oocytes were then injected with 50 nL of 100 ng/μL hP2X1 mRNA that was made from linearized full-length wild-type or mutant pcDNA 3.1x according to the protocol provided in the mMessage mMachine kit (Invitrogen). Injected oocytes were allowed to express for ~20 hours at 18 °C before recording was performed.
(§2) Data acquisition was performed using the Oocyte Clamp OC-725C amplifier and pClamp 8.2 software. Buffers were applied using a gravity fed RSC-200 Rapid Solution Changer that flows at ~5 mL/min. All experiments use Sutter filamented glass 10 cm in length with an inner diameter of 0.69 mm and an outer diameter of 1.2 mm to impale oocytes and clamp the holding voltage at −60 mV. Experiments were recorded in buffer containing 10 mM HEPES (pH 7.4), 140 mM NaCl, 5 mM KCl, 2 mM CaCl2, 2 mM MgCl2, and 10 mM glucose.
(§3) Excitatory responses to a dilution series of ATP between 6.4 nM and 10 mM were examined across the different mutants. Each evoked response was normalized to an initial ATP-induced current evoked by the following concentrations: 500 µM ATP for R292A, 2 mM ATP for K309A, and 100 µM ATP for the remaining mutants and wild-type receptor. The data was fit in Prism 9 using the nonlinear regression named “EC50, x is concentration” to afford EC50 values. This value was then averaged amongst each singular condition and reported as an average plus or minus the standard deviation.

[3] = target: T2, hP2X1 K249A (Homo sapiens, UniProt P51575, K249A); experiment: ATP dose response (EC50), TEVC in oocytes; type: cell-based; details: for Normalized Current: hP2X1 K249A
T2 construct: hP2X1 mRNA that was made from linearized full-length wild-type or mutant pcDNA 3.1x; expressed in transfected cells; host or cells: Xenopus laevis oocytes (mRNA injection)
T2 sequence (P51575 1-399 K249A): T1 sequence (P51575 1-399 R292A) with K249A, A292R
Procedure: as §1, §2, §3

[4] = target: T3, hP2X1 K136A (Homo sapiens, UniProt P51575, K136A); experiment: ATP dose response (EC50), TEVC in oocytes; type: cell-based
T3 construct: hP2X1 mRNA that was made from linearized full-length wild-type or mutant pcDNA 3.1x; expressed in transfected cells; host or cells: Xenopus laevis oocytes (mRNA injection)
T3 sequence (P51575 1-399 K136A): T1 sequence (P51575 1-399 R292A) with K136A, A292R
Procedure: as §1, §2, §3

[5] = target: T4, hP2X1 K309A (Homo sapiens, UniProt P51575, K309A); experiment: ATP dose response (EC50), TEVC in oocytes; type: cell-based
T4 construct: hP2X1 mRNA that was made from linearized full-length wild-type or mutant pcDNA 3.1x; expressed in transfected cells; host or cells: Xenopus laevis oocytes (mRNA injection)
T4 sequence (P51575 1-399 K309A): T1 sequence (P51575 1-399 R292A) with A292R, K309A
Procedure: as §1, §2, §3

SMILES: O=C(Nc1cc(C(=O)Nc2ccc(S(=O)(=O)O)cc2S(=O)(=O)O)cc(C(=O)Nc2ccc(S(=O)(=O)O)cc2S(=O)(=O)O)c1)Nc1cc(C(=O)Nc2ccc(S(=O)(=O)O)cc2S(=O)(=O)O)cc(C(=O)Nc2ccc(S(=O)(=O)O)cc2S(=O)(=O)O)c1 [NF449, 4,4’,4”,4’’’-(carbonylbis(imino-5,1,3-benzenetriylbis(carbonylimino)))tetrakis-benzene-1,3-disulfonic acid]
- Hill coefficient [1]: ~ 1.4

- EC50 of ATP ([2]; TEVC): impacted
- Normalized Current ([2]; [ATP] 1.000E-04 M): 0.772 and 0.7521 and 0.7236
- Normalized Current ([2]; [ATP] 1.600E-07 M): 0.000000
- Normalized Current ([2]; [ATP] 2.000E-05 M): 0.2643 and 0.1768 and 0.1722
- Normalized Current ([2]; [ATP] 2.500E-03 M): 1.04 and 1.022 and 0.9381
- Normalized Current ([2]; [ATP] 5.000E-04 M): 0.9697 and 0.8815 and 0.878
- Normalized Current ([3]; [ATP] 1.000E-04 M): 1.03 and 1.005 and 0.9647
- Normalized Current ([3]; [ATP] 2.000E-05 M): 1.005 and 0.9326 and 0.8353
- Normalized Current ([3]; [ATP] 4.000E-06 M): 0.7721 and 0.7584 and 0.7231
- Normalized Current ([3]; [ATP] 8.000E-07 M): 0.6172 and 0.5832 and 0.5545
- EC50 of ATP ([4]; TEVC): did not affect
- Normalized Current ([4]; [ATP] 1.000E-04 M): 0.9825 and 0.9019 and 0.8989
- Normalized Current ([4]; [ATP] 2.000E-05 M): 0.8446 and 0.8328 and 0.7216
- Normalized Current ([4]; [ATP] 4.000E-06 M): 0.7216 and 0.6921 and 0.6232
- Normalized Current ([4]; [ATP] 5.000E-04 M): 1.035 and 0.9912 and 0.9735
- Normalized Current ([4]; [ATP] 8.000E-07 M): 0.3703 and 0.2936 and 0.2241
- EC50 of ATP ([5]; TEVC): impacted
- Normalized Current ([5]; [ATP] 1.000E-02 M): 1.006 and 0.9573 and 1.036
- Normalized Current ([5]; [ATP] 2.000E-03 M): 0.8423 and 0.8039 and 0.8072
- Normalized Current ([5]; [ATP] 3.200E-06 M): 0.000000
- Normalized Current ([5]; [ATP] 4.000E-04 M): 0.3324 and 0.3289 and 0.2846
SMILES: Nc1ncnc2c1ncn2[C@@H]1O[C@H](COP(=O)(O)OP(=O)(O)OP(=O)(O)O)[C@@H](O)[C@H]1O [ATP]
- apparent affinity (EC50) of ATP, effect of mutation ([3]; hP2X1 K249A vs wild-type, TEVC): do not appear to significantly change; also recorded: no major effect; also recorded: moderately increases
